Legend:
[1] = target: His-tagged KRAS G12D protein (Homo sapiens, UniProt P01116, G12D); assay: KRAS G12D TR-FRET Assay; type: binding
[2] = target: GDP-bound KRAS protein (aa 1-169), containing both G12D and C118A amino acid substitutions (Homo sapiens, UniProt P01116, C118A/G12D); assay: KRAS G12D Coupled Nucleotide Exchange Assay; type: biochemical; conditions: 2 h compound pre-incubation
Method: Following compound pre-incubation, purified SOS protein (aa 564-1049) and GTP (Roche 10106399001) were added to the assay wells and incubated for an additional 30 min. […] The assay plates were then read on a PerkinElmer EnVision Multilabel Reader, using AlphaScreen® technology, and data were analyzed using a 4-parameter logistic model to calculate IC50 values.

[3] = system: Phosphorylation of ERK1/2 in A-427 cells; assay: Phospho-ERK1/2 MSD Assay (A-427 cells); type: cell-based; conditions: Homo sapiens, A-427, 2 h, 2 h treatment, read-out: p-ERK (A427 cells) IC50
Procedure, shortened: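 ERK1/2 phosphorylation measured by Meso Scale whole-cell lysate assay after A-427 cells were exposed to a titration of compound for 2 h at 37 °C.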

[4] = system: Phosphorylation of ERK1/2 in AsPC-1 cells; assay: Phospho-ERK1/2 MSD Assay (AsPC-1 cells); type: cell-based; conditions: Homo sapiens, ASPC1, 2 h, 2 hours treatment, read-out: p-ERK (AsPC-1 cells) IC50
Procedure, shortened: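 Read-out: MSD electrochemiluminescent detection of phosphorylated ERK1/2 in whole-cell lysates, fitted to a 4-parameter logistic curve for IC50. Prior to lysis, AsPC-1 cells (25,000 per well) received a 2 h compound dose-response at 37 °C.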

Chain of GDP-bound KRAS protein (aa 1-169), containing both G12D and C118A amino acid substitutions (P01116 1-169 isoform P01116-2 G12D/C118A): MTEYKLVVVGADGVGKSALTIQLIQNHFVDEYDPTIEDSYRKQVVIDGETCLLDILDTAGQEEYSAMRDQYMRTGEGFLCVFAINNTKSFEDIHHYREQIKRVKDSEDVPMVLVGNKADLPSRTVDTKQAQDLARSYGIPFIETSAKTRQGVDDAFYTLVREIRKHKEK
Chain of His-tagged KRAS G12D protein (P01116 1-188 isoform P01116-2 G12D): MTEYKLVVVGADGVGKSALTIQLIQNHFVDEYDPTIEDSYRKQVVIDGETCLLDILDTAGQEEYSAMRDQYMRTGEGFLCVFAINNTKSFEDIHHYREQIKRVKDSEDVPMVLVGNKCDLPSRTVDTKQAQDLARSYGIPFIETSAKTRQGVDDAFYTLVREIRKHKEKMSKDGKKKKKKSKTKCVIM

SMILES	IC50 [1]	Avg 2 h Coupled Exchange IC50 [2]	IC50 [3]	IC50 [4]
Oc1cc(-c2c(F)cc3c(N4C[C@H]5CC[C@@H]4CN5)nc(OC[C@@]45CCCN4C[C@H](F)C5)nc3c2F)c2ccccc2c1Cl [Example 206, 4-(4-((1R,4R)-2,5-Diazabicyclo[2.2.2]octan-2-yl)-6,8-difluoro-2-(((2R,7aS)-2-fluorotetrahydro-1H-pyrrolizin-7a(5H)-yl)methoxy)quinazolin-7-yl)-1-chloronaphthalen-2-ol]	30 nM	42 nM	116 nM	705 nM
Cc1ccc2[nH]nc(C)c2c1-c1c(Cl)cc2c(N3C[C@H]4CC[C@@H](C3)N4)nc(OC[C@@]34CCCN3C[C@H](F)C4)nc2c1F [Example 207, 4-((1R,5S)-3,8-Diazabicyclo[3.2.1]octan-3-yl)-6-chloro-7-(3,5-dimethyl-1H-indazol-4-yl)-8-fluoro-2-(((2R,7aS)-2-fluorotetrahydro-1H-pyrrolizin-7a(5H)-yl)methoxy)quinazoline]	7 nM	7 nM	202 nM	348 nM
Cc1ccc2[nH]nc(C)c2c1-c1c(F)cc2c(N3C[C@H]4CC[C@@H](C3)N4)nc(OC[C@@]34CCCN3C[C@H](F)C4)nc2c1F [Example 208, 4-((1R,5S)-3,8-diazabicyclo[3.2.1]octan-3-yl)-7-(3,5-dimethyl-1H-indazol-4-yl)-6,8-difluoro-2-(((2R,7aS)-2-fluorotetrahydro-1H-pyrrolizin-7a(5H)-yl)methoxy) quinazoline]	18 nM	8 nM	484 nM	843 nM
Cc1ccc2[nH]nc(C)c2c1-c1ccc2c(N3C[C@H]4CC[C@@H](C3)N4)nc(OC[C@@]34CCCN3C[C@H](F)C4)nc2c1F [Example 209, 4-((1R,5S)-3,8-diazabicyclo[3.2.1]octan-3-yl)-7-(3,5-dimethyl-1H-indazol-4-yl)-8-fluoro-2-(((2R,7aS)-2-fluorotetrahydro-1H-pyrrolizin-7a(5H)-yl)methoxy) quinazoline]	68 nM	24 nM	1620 nM	2570 nM
CCc1c(F)ccc2cc(O)cc(-c3ccc4c(N5C[C@H]6CC[C@@H](C5)N6)cc(OC[C@@]56CCCN5C[C@H](F)C6)nc4c3F)c12 [Example 211, 4-(4-((1R,5S)-3,8-Diazabicyclo[3.2.1]octan-3-yl)-8-fluoro-2-(((2R,7aS)-2-fluorotetrahydro-1H-pyrrolizin-7a(5H)-yl)methoxy)quinolin-7-yl)-5-ethyl-6-fluoronaphthalen-2-ol]	18 nM	29 nM	6290 nM	8750 nM
CCc1c(F)ccc2cc(O)cc(-c3c(F)cc4c(N5C[C@H]6CC[C@@H](C5)N6)nc(OCC5(C)CCC(=O)O5)nc4c3F)c12 (stereo partly drawn) [Example 212, 5-(((4-((1R,5S)-3,8-Diazabicyclo[3.2.1]octan-3-yl)-7-(8-ethyl-7-fluoro-3-hydroxynaphthalen-1-yl)-6,8-difluoroquinazolin-2-yl)oxy)methyl)-5-methyldihydrofuran-2(3H)-one]	2 nM	3 nM	514 nM	784 nM
CCc1c(F)ccc2cc(O)cc(-c3c(F)cc4c(N5C[C@H]6CC[C@@H](C5)N6)nc(OCc5nccn5C)nc4c3F)c12 [Example 213, 4-(4-((1R,5S)-3,8-diazabicyclo[3.2.1]octan-3-yl)-6,8-difluoro-2-((1-methyl-1H-imidazol-2-yl)methoxy)quinazolin-7-yl)-5-ethyl-6-fluoronaphthalen-2-ol]	11 nM	6 nM	1460 nM	2300 nM
CCc1c(F)ccc2cc(O)cc(-c3c(F)cc4c(N5C[C@H]6CC[C@@H](C5)N6)nc(OCC(C)(O)CC)nc4c3F)c12 (stereo partly drawn) [Example 214, 4-(4-((1R,5S)-3,8-diazabicyclo[3.2.1]octan-3-yl)-6,8-difluoro-2-(2-hydroxy-2-methylbutoxy)quinazolin-7-yl)-5-ethyl-6-fluoronaphthalen-2-ol]	13 nM	5 nM	1700 nM	1210 nM
CCc1c(F)ccc2cc(O)cc(-c3c(F)cc4c(N5C[C@H]6CC[C@@H](C5)N6)nc(OC[C@@H]5CC(F)(F)CN5)nc4c3F)c12 [Example 217, 4-(4-((1R,5S)-3,8-diazabicyclo[3.2.1]octan-3-yl)-2-(((S)-4,4-difluoropyrrolidin-2-yl)methoxy)-6,8-difluoroquinazolin-7-yl)-5-ethyl-6-fluoronaphthalen-2-ol]	4 nM	4 nM	218 nM	414 nM
CCc1c(F)ccc2cc(O)cc(-c3c(F)cc4c(N5C[C@H]6CC[C@@H](C5)N6)nc(/C=C/C(C)(C)O)nc4c3F)c12 [Example 218, 4-(4-((1R,5S)-3,8-Diazabicyclo[3.2.1]octan-3-yl)-6,8-difluoro-2-((E)-3-hydroxy-3-methylbut-1-en-1-yl)quinazolin-7-yl)-S-ethyl-6-fluoronaphthalen-2-ol]	6 nM	6 nM	1460 nM	1140 nM
N#Cc1cc2c(N3C[C@H]4CC[C@@H](C3)N4)nc(OC[C@@]34CCCN3C[C@H](F)C4)nc2c(F)c1-c1cc(O)cc2ccccc12 [Example 219, 4-((1R,5S)-3,8-Diazabicyclo[3.2.1]octan-3-yl)-8-fluoro-2-(((2R,7aS)-2-fluorotetrahydro-1H-pyrrolizin-7a(5H)-yl)methoxy)-7-(3-hydroxynaphthalen-1-yl)quinazoline-6-carbonitrile]	1 nM	2 nM	92 nM	531 nM
Nc1cc2ccccc2c(-c2ccc3c(N4CC5CCC(C4)N5)nc(OC[C@@]45CCCN4C[C@H](F)C5)nc3c2F)n1 [Example 220]	60 nM	22 nM	2860 nM	4400 nM
Oc1cc(-c2ccc3c(N4C[C@H]5CC[C@@H](C4)N5)nc(OC[C@@]45CCCN4C[C@H](F)C5)nc3c2F)c2ccccc2c1F [Example 221, 4-(4-((1R,5S)-3,8-diazabicyclo[3.2.1]octan-3-yl)-8-fluoro-2-(((2R,7aS)-2-fluorotetrahydro-1H-pyrrolizin-7a(5H)-yl)methoxy)quinazolin-7-yl)-1-fluoronaphthalen-2-ol]	1 nM	1 nM	139 nM	325 nM
O=c1cc(-c2ccc3c(N4C[C@H]5CC[C@@H](C4)N5)nc(OC[C@@]45CCCN4C[C@H](F)C5)nc3c2F)c2ccccc2[nH]1 [Example 222, 4-(4-((1R,5S)-3,8-diazabicyclo[3.2.1]octan-3-yl)-8-fluoro-2-(((2R,7aS)-2-fluorotetrahydro-1H-pyrrolizin-7a(5H)-yl)methoxy)quinazolin-7-yl)quinolin-2-ol]	255 nM	74 nM	> 10000 nM	> 10000 nM
Nc1ccc(C(F)(F)F)c(-c2ccc3c(N4C[C@H]5CC[C@@H](C4)N5)nc(OC[C@@]45CCCN4C[C@H](F)C5)nc3c2F)n1 [Example 223, 6-(4-((1R,5S)-3,8-diazabicyclo[3.2.1]octan-3-yl)-8-fluoro-2-(((2R,7aS)-2-fluorotetrahydro-1H-pyrrolizin-7a(5H)-yl)methoxy)quinazolin-7-yl)-5-(trifluoromethyl) pyridin-2-amine]	44 nM	15 nM	894 nM	3030 nM
Nc1ccc(C2CC2)c(-c2ccc3c(N4C[C@H]5CC[C@@H](C4)N5)nc(OC[C@@]45CCCN4C[C@H](F)C5)nc3c2F)n1 [Example 224, 6-(4-((1R,5S)-3,8-diazabicyclo[3.2.1]octan-3-yl)-8-fluoro-2-(((2R,7aS)-2-fluorotetrahydro-1H-pyrrolizin-7a(5H)-yl)methoxy)quinazolin-7-yl)-5-cyclopropylpyridin-2-amine]	274 nM	41 nM	7620 nM	> 10000 nM
Fc1c(-c2cc(C(F)F)cc3ccccc23)ccc2c(N3C[C@H]4CC[C@@H](C3)N4)nc(OC[C@@]34CCCN3C[C@H](F)C4)nc12 [Example 225, 4-((1R,5S)-3,8-diazabicyclo[3.2.1]octan-3-yl)-7-(3-(difluoromethyl)naphthalen-1-yl)-8-fluoro-2-(((2R,7aS)-2-fluorotetrahydro-1H-pyrrolizin-7a(5H)-yl)methoxy) quinazoline]	57 nM	44 nM	79 nM	256 nM
Cc1ccc2[nH]nc(N)c2c1-c1ccc2c(N3C[C@H]4CC[C@@H](C3)N4)nc(OC[C@@]34CCCN3C[C@H](F)C4)nc2c1F [Example 226, 4-(4-((1R,5S)-3,8-diazabicyclo[3.2.1]octan-3-yl)-8-fluoro-2-(((2R,7aS)-2-fluorotetrahydro-1H-pyrrolizin-7a(5H)-yl)methoxy)quinazolin-7-yl)-5-methyl-1H-indazol-3-amine]	44 nM	7 nM	> 10000 nM	> 10000 nM

Reference: US20250059205A1, “Heterocyclic Compounds and Methods of Use” (AMGEN INC., priority 2021, published 2025)
